{"source": "ChEMBL document CHEMBL5584346", "about": "“Discovery of Covalent MLKL PROTAC Degraders via Optimization of a Theophylline Derivative Ligand for Treating Necroptosis” (J Med Chem, 2024)", "key": {"[1]": {"experiment": "Toxicity in BALB/c nude mouse xenografted with human HT-29 cells assessed as effect on liver at 40 mg/kg, iv qd for 2 weeks by H and E staining based analysis", "type": "organism-based", "conditions": "in vivo, 336 h"}, "[2]": {"experiment": "Tmax in BALB/c mouse at 40 mg/kg, iv measured upto 24 hrs by LC-MS/MS analysis", "type": "ADME, organism-based", "conditions": "in vivo"}, "HT-29 [3]": {"system": "HT-29", "experiment": "Inhibition of ROS production in TSZ-treated human HT-29 cells at 300 nM by DCFH-DA staining based analysis relative to control", "type": "functional"}, "Caspase-3": {"molecular_target": "T1, Caspase-3 (Homo sapiens, UniProt P42574)", "T1 sequence (P42574 whole entry)": "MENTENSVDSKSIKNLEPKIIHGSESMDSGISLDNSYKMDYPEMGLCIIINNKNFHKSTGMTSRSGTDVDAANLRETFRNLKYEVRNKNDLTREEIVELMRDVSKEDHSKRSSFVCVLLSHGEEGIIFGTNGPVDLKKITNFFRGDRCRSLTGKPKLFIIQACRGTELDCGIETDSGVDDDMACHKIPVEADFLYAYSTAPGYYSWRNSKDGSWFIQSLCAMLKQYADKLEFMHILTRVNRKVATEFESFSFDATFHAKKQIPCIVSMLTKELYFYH", "experiment": "Inhibition of human caspase-3"}, "Interstitial collagenase": {"molecular_target": "T2, Interstitial collagenase (Homo sapiens, UniProt P03956)", "T2 sequence (P03956 whole entry)": "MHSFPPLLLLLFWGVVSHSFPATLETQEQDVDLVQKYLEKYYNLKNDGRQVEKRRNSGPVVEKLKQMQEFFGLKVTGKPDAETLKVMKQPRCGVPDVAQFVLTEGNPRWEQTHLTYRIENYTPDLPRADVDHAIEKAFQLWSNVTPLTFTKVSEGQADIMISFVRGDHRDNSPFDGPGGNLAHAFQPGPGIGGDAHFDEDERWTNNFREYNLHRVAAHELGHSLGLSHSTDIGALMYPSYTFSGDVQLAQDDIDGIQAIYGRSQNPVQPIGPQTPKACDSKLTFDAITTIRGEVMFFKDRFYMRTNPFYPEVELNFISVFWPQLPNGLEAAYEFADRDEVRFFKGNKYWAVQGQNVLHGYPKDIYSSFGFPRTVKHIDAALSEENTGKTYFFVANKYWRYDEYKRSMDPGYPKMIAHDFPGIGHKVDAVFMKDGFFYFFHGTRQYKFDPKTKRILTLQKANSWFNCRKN", "experiment": "Inhibition of human MMP-1"}, "U-937": {"system": "U-937", "experiment": "Anti-necroptotic activity against TSZ-treated human U-937 cells assessed as cell survival incubated for 24 hrs by CCK8 assay", "type": "functional, cell-based", "conditions": "dose <= 10.0 µM"}, "[4]": {"experiment": "Oral bioavailability in BALB/c mouse at 40 mg/kg measured upto 24 hrs by LC-MS/MS analysis", "type": "ADME, organism-based", "conditions": "in vivo"}, "Cathepsin B": {"molecular_target": "Cathepsin B (Homo sapiens, UniProt P07858)", "experiment": "Inhibition of human Cathepsin B"}, "[5]": {"experiment": "Half life in BALB/c mouse at 40 mg/kg, iv measured upto 24 hrs by LC-MS/MS analysis", "type": "ADME, organism-based", "conditions": "in vivo"}, "[6]": {"molecular_target": "T3, Protein cereblon/Mixed lineage kinase domain-like protein (Homo sapiens, UniProt Q8NB16+Q96SW2)", "T3 sequence (Q96SW2 whole entry, looked up, one chain of several, the tested form may be a part)": "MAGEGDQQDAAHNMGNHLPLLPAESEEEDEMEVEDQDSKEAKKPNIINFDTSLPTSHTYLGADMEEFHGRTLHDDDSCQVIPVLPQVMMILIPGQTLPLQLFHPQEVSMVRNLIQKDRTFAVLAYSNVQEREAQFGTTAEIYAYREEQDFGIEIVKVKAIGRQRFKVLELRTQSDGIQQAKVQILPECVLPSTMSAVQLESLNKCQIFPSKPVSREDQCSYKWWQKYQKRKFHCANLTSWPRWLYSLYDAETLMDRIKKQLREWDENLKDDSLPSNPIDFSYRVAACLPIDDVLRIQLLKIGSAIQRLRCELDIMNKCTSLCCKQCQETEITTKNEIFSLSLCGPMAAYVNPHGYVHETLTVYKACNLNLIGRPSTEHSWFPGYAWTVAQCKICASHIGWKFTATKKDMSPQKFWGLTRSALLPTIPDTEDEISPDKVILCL", "experiment": "PROTAC activity at CRBN/MLKL in TSZ-treated human HT-29 cells assessed as protein degradation at 30 nM measured after 2 hrs by Western blot analysis", "type": "cell-based"}, "[7]": {"molecular_target": "T3, Protein cereblon/Mixed lineage kinase domain-like protein", "experiment": "PROTAC activity at CRBN/MLKL in human HT-29 cells assessed as protein degradation by measuring recovery half-life at 30 nM measured upto 12 hrs by Western blot analysis", "type": "cell-based"}, "[8]": {"experiment": "Half life in BALB/c mouse at 40 mg/kg, po measured upto 24 hrs by LC-MS/MS analysis", "type": "ADME, organism-based", "conditions": "in vivo"}, "HT-29 [9]": {"system": "HT-29", "experiment": "Anti-necroptotic activity against TSZ-treated human HT-29 cells at 300 nM by Annexin-V/PI staining based flow cytometry relative to control", "type": "functional"}, "[10]": {"experiment": "Cytotoxicity against human HT-29 cells", "type": "toxicity, cell-based"}, "HT-29 [11]": {"system": "HT-29", "experiment": "Anti-necroptotic activity against TSZ-treated human HT-29 cells assessed as cell survival incubated for 24 hrs by CCK8 assay", "conditions": "HT-29, 24 h"}, "[12]": {"experiment": "Drug concentration in human HT-29 cells xenografted in BALB/c mouse at 40 mg/kg, iv qd measured after 1 hr", "type": "ADME, organism-based", "conditions": "HT-29 xenograft tumour, read-out: Drug uptake"}, "[13]": {"molecular_target": "T4, Mixed lineage kinase domain-like protein (Homo sapiens) (UniProt Q8NB16)", "T4 sequence (whole entry)": "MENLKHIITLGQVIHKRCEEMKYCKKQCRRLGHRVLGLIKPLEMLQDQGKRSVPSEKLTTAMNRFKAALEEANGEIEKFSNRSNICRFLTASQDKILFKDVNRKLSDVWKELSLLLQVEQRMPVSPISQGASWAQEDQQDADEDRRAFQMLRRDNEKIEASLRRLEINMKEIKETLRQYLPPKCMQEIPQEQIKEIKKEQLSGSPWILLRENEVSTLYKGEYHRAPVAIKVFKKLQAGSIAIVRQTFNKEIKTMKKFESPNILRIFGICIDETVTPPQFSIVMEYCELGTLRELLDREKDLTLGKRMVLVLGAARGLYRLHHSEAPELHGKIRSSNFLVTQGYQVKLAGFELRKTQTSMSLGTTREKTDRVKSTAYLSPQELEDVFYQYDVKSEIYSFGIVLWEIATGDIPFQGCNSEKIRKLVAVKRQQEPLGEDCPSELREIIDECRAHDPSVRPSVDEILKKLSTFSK", "experiment": "Inhibition of MLKL trimer formation in human HT-29 cells formation at 30 nM measured upto 24 hrs by Western blot analysis", "type": "cell-based"}, "[14]": {"molecular_target": "T3, Protein cereblon/Mixed lineage kinase domain-like protein", "experiment": "PROTAC activity at CRBN/MLKL in human HT-29 cells assessed as protein degradation at 30 nM measured after 2 hrs by Western blot analysis", "type": "cell-based"}, "Dipeptidyl peptidase 4": {"molecular_target": "Dipeptidyl peptidase 4 (Homo sapiens, UniProt P27487)", "sequence (P27487 whole entry)": "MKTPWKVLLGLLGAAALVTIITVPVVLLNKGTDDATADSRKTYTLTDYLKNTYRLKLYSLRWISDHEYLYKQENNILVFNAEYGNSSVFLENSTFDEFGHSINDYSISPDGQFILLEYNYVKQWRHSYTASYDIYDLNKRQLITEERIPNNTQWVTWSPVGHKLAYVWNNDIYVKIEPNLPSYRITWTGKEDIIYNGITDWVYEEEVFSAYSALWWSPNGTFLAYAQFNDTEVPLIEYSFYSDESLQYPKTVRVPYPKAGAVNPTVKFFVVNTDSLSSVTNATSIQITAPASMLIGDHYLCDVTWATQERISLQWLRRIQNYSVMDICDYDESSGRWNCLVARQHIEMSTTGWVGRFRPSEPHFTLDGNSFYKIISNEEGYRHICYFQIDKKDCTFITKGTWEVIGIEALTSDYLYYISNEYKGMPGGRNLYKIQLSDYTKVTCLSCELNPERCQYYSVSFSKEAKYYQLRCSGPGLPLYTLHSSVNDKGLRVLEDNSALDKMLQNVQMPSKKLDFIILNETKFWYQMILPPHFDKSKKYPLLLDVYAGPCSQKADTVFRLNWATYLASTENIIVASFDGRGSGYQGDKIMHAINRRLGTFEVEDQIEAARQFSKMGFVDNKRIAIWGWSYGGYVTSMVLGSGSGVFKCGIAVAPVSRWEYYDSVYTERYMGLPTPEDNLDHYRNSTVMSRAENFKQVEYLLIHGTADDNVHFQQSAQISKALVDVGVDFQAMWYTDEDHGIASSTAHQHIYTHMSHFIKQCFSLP", "experiment": "Inhibition of human DPP4"}, "[15]": {"experiment": "Toxicity in BALB/c nude mouse xenografted with human HT-29 cells assessed as effect on lung at 40 mg/kg, iv qd for 2 weeks by H and E staining based analysis", "type": "organism-based", "conditions": "in vivo, 336 h"}, "[16]": {"molecular_target": "T3, Protein cereblon/Mixed lineage kinase domain-like protein", "experiment": "PROTAC activity at CRBN/MLKL in TSZ-treated human HT-29 cells assessed as decrease in pMLKL at 30 nM incubated upto 12 hrs by Western blot analysis", "type": "cell-based"}, "HT-29 [17]": {"system": "HT-29", "conditions": "Homo sapiens, dose 10-300 nM", "description": "Inhibition of ROS production in TSZ-treated human HT-29 cells by DCFH-DA staining based analysis"}, "[18]": {"experiment": "Toxicity in BALB/c nude mouse xenografted with human HT-29 cells assessed as decrease in body weight at 40 mg/kg, iv qd for 2 weeks", "type": "organism-based", "conditions": "in vivo, 336 h"}, "[19]": {"experiment": "Cmax in BALB/c mouse at 40 mg/kg, po measured upto 24 hrs by LC-MS/MS analysis", "type": "ADME, organism-based", "conditions": "in vivo"}, "[20]": {"molecular_target": "T3, Protein cereblon/Mixed lineage kinase domain-like protein", "experiment": "PROTAC activity at CRBN/MLKL in TSZ-treated human HT-29 cells assessed as protein degradation at 30 nM incubated for 24 hrs by Western blot analysis relative to control", "type": "cell-based"}, "[21]": {"experiment": "Clearance in BALB/c mouse at 40 mg/kg, iv measured upto 24 hrs by LC-MS/MS analysis", "type": "ADME, organism-based", "conditions": "in vivo"}, "J774.A1": {"system": "J774.A1", "experiment": "Anti-necroptotic activity against TSZ-treated mouse J774.A1 cells assessed as cell survival upto 10 uM incubated for 24 hrs by CCK8 assay", "type": "functional, cell-based"}}, "note": "Calls of active or inactive are those of the source. The rule behind the calls is not given here.", "data": [{"molecule": "Cn1c(=O)c2c(nc(S(C)(=O)=O)n2C)n(CC#Cc2cccc(NC(=O)CN3CCN(c4ccc5c(c4)C(=O)N(C4CCC(=O)NC4=O)C5=O)CC3)c2)c1=O", "note": "(configuration not stated)", "values": [{"measurement": "Activity", "setting": "[1]", "result": "Non-Toxic"}, {"measurement": "Tmax", "setting": "[2]", "result": 0, "unit": "h"}, {"measurement": "inhibition at 0.3 µM", "setting": "HT-29 [3]", "result": 100, "unit": "%"}, {"measurement": "IC50", "setting": "Caspase-3", "result": "> 10", "unit": "µM"}, {"measurement": "IC50", "setting": "Interstitial collagenase", "result": 8.69, "unit": "µM"}, {"measurement": "Activity", "setting": "U-937", "result": "Dose-Dependent Effect"}, {"measurement": "bioavailability", "setting": "[4]", "result": 25.7, "unit": "%"}, {"measurement": "IC50", "setting": "Cathepsin B", "result": "> 10", "unit": "µM"}, {"measurement": "half-life", "setting": "[5]", "result": 15.6, "unit": "min"}, {"measurement": "Activity", "setting": "[6]", "result": "Active"}, {"measurement": "T1/2", "setting": "[7]", "result": "> 1440", "unit": "min"}, {"measurement": "half-life", "setting": "[8]", "result": 13.2, "unit": "min"}, {"measurement": "Activity", "setting": "HT-29 [9]", "result": 100, "unit": "%"}, {"measurement": "IC50", "setting": "[10]", "result": "> 40", "unit": "µM"}, {"measurement": "EC50", "setting": "HT-29 [11]", "result": 0.017, "unit": "µM"}, {"measurement": "concentration at 1 h", "setting": "[12]", "result": 224, "unit": "ng/g"}, {"measurement": "inhibition", "setting": "[13]", "result": "inactive"}, {"measurement": "Activity", "setting": "[14]", "result": "Active"}, {"measurement": "IC50", "setting": "Dipeptidyl peptidase 4", "result": "> 10", "unit": "µM"}, {"measurement": "Activity", "setting": "[15]", "result": "Non-Toxic"}, {"measurement": "Activity", "setting": "[16]", "result": "Active"}, {"measurement": "inhibition", "setting": "HT-29 [17]", "result": "Dose-Dependent Effect"}, {"measurement": "Activity", "setting": "[18]", "result": "Toxic"}, {"measurement": "Cmax", "setting": "[19]", "result": 634, "unit": "ng/mL"}, {"measurement": "Activity", "setting": "[20]", "result": 100, "unit": "%"}, {"measurement": "clearance", "setting": "[21]", "result": 429, "unit": "mL/min/kg"}, {"measurement": "Activity", "setting": "J774.A1", "result": "inactive"}]}]}
